Test results from PubChem BioAssay AID1626 (SRMLSC, 2009).

System: M. tuberculosis H37Rv growth inhibition
Test: M. tuberculosis H37Rv growth inhibitors, H37Rv strain (AID 1626)
Settings: for IC90: measured here: IC90 against H37Rv; for CC50: measured here: Vero cell cytotoxicity

| SMILES | IC50 [µM] | IC90 [µM] | CC50 [µM] |
| --- | --- | --- | --- |
| O=C(CNC(=O)/C(=C/c1ccccc1)NC(=O)c1ccc(Br)cc1)OCc1ccccc1 | 4.09 | 6.63 | 15.3 |
| CCC(C)Nc1nc2c(C)cccn2c(=O)c1C=Nc1ccc(OC)cc1 (stereo unspecified) | 52.4 | > 100 |  |
| O=C(CSCC(=O)Nc1ccc2ccccc2c1)NCc1ccccc1 | 35.4 | > 100 |  |
| CCOC(=O)CSc1nnc(-c2ccccc2NC(=O)c2ccccc2)o1 | 2.75 | > 100 |  |
| O=C(/C=C/c1ccccc1)Oc1cccc2cccnc12 | 7.94 | 9.54 | 37.2 |
| CCOC(=O)c1ccccc1-n1c(C)cc(C2N=C(N)Nc3nc4ccccc4n32)c1C (stereo unspecified) | 11.5 | 13.7 |  |
| CCCCCc1cc(=O)oc2c(C(CCN3CCCC(C)C3)c3ccc(OC)cc3)c(OC)cc(OC)c12 (stereo unspecified) | 2.18 | 3.26 | 17.1 |
| Cc1[nH]c2ccccc2c1C1=NNC(=Nc2ccc(F)cc2)SC1 | 13.3 | 49.8 | > 40 |
| C=C1C2(C(=O)Nc3ccc(SC(F)F)cc3)CCC(C2)C1(C)C (stereo unspecified) |  | > 100 |  |
| O=C1c2cccc3c([N+](=O)[O-])ccc(c23)C(=O)N1CC1CCCO1 (stereo unspecified) | 3.76 | 12.5 | 18.1 |
| CCOC(=O)CSc1ncc(-c2cccc(Cl)c2)cn1 | 1.35 | 3.11 |  |
| CCOC(=O)c1nc2sc3c(c2c(=O)[nH]1)CCC(C)C3 (stereo unspecified) | 10.4 | > 100 |  |
| CCOc1ccc2nc(NC(=O)c3ccccn3)sc2c1 | 1.36 | 3.07 | 15.1 |
| Oc1ccccc1CNc1cnc2ccccc2c1 | 11.1 | > 100 | > 40 |
| Cc1nc(-c2ccccn2)nc(SCC(=O)c2ccccc2)c1Cl | 3.68 | 6.49 | > 40 |
| O=C1CCNc2ccc(-c3ccccc3)cc21 |  | > 100 |  |
| Oc1cccc(-c2nc3ccc4ccccc4c3c3c2CCC3)c1 | 16.8 | 27 | > 40 |
| Cc1ccc(Nc2cc(C)nn2-c2nc(C)cc(=O)[nH]2)cc1 | < 0.391 | 5.56 | 1.95 |
| Cc1ccc(-c2ccc(C3C(C#N)=C(N)Oc4n[nH]c(C)c43)o2)cc1 (stereo unspecified) | 2.37 | > 100 | > 40 |
| CC1CCN(c2nc(-c3cccnc3)nc3scc(-c4ccccc4)c23)CC1 | 5.94 | 65.3 |  |
| CCNC(=O)COC(=O)c1ccc(-c2nc3ccccc3s2)s1 | 7.63 | 15 | > 40 |
| O=C(/C=C/c1ccccc1)CC(=O)c1ccccc1O | 23.7 | > 100 | > 40 |
| Cc1[nH]n(-c2ccc(Cl)cc2)c(=O)c1N=Nc1cccnc1 | 3.39 | > 100 | 36.1 |
| CCOC(=O)c1cnc(Nc2nc3ccccc3o2)nc1C | 20.4 | > 100 | 22.5 |
| Cc1cc([N+](=O)[O-])ccc1NC(=O)CN1C2CCC1CC(NC(=O)NC13CC4CC(CC(C4)C1)C3)C2 (stereo unspecified) | 3.02 | 5.59 | > 40 |
| CC(C)c1ccc(NC(=O)NC2CCCCC2)cc1 | 6.27 | > 100 |  |
| O=C1c2ccccc2-n2c1nc1ccccc1c2=O | < 0.195 | 0.601 | > 40 |

| SMILES | IC50 [µM] | IC90 [µM] | CC50 [µM] |
| --- | --- | --- | --- |
| Cc1cc(Cl)cc(C)c1OCCCCn1ccnc1 | 9.33 | 12.7 | > 40 |
| CCOc1ccc(NC(=O)CCCc2cc(-c3ccc(OCC)cc3)on2)cc1 | 47.1 | > 100 |  |
| COC(=O)CSc1nc2c(c(-c3ccc(C)o3)c1C#N)CCCC2 | 2.66 | 3.47 |  |
| CCOC(=O)C1CCN(c2nc3cc(OC)ccc3cc2C#N)CC1 | 8.91 | 14.2 |  |
| O=[N+]([O-])c1ncn(Cc2c(Cl)cccc2Cl)n1 | 36.6 | > 100 |  |
| Cc1cc(=O)oc2cc(Oc3ccc([N+](=O)[O-])cc3C(F)(F)F)ccc12 | 12.2 | > 100 |  |
| O=C(Nc1nc(-c2ccccn2)cs1)c1cc2ccccc2o1 | 2.62 | 42.6 | > 40 |
| Cc1ccccc1/C=c1\s/c(=C\C(=O)C(C)(C)C)[nH]c1=O | 52.8 | > 100 | 17.2 |
| CC1CC(C)(C)Nc2ccc(N=O)cc21 (stereo unspecified) | 5.75 | 6.38 | 6.76 |
| CCOc1ccc2nc(/N=C/c3nc(-c4ccccc4)oc3O)sc2c1 | 6.82 | > 100 |  |
| CCc1ccc(CCC(=O)Nc2ccc(OC)cc2)o1 | 35.9 | > 100 |  |
| Cc1cc2oc3c(c(=O)c2cc1C)C(c1cccc(Br)c1)N(Cc1ccco1)C3=O (stereo unspecified) | 5.92 | > 100 | 13.9 |
| COc1ccc(CCNCC(O)Cn2c3ccccc3c3ccccc32)cc1OC (stereo unspecified) | 10.6 | 15.2 | 11.8 |
| Cc1ccc(Nc2cc(C)nn2-c2nc(C)cc(C)n2)cc1 | < 0.195 | 56.1 | 13.5 |
| Cc1[nH]nc2c1C(c1ccc(-c3ccc(Cl)cc3)o1)C(C#N)=C(N)O2 (stereo unspecified) | 0.749 | 91.5 | > 40 |
| Cc1cccc(-c2nsc(SCC(=O)NCc3ccc4c(c3)OCO4)n2)c1 | 7.57 | > 100 |  |
| O=C(NC(=O)c1ccc(C(F)(F)F)cc1)Nc1ccc(-c2cnco2)cc1 | 49.6 | > 100 | > 40 |
| Cc1nn(-c2ccccc2)c(Cl)c1CN(C(=O)CCl)c1ccc(Cl)cc1 | 13.5 | 31.3 | 1.82 |
| Cc1nn(-c2ccc([N+](=O)[O-])cc2)c2c1C(c1ccc(OC(F)F)cc1)N1C(=N2)C(=O)Nc2ccccc21 (stereo unspecified) | 4.66 | > 100 | > 40 |
| COCc1cc(S(=O)c2ccc(Cl)cc2)nc(C)n1 (stereo unspecified) | 15.1 | 24.3 | 22.1 |
| COc1ccc(C(C(=O)NC2CCCCC2)N(C(=O)c2sc(C)nc2C)c2ccccc2C)cc1 (stereo unspecified) | 6.96 | 11.4 | > 40 |
| CCOc1ccc(NCC(=O)Nc2ccc(C)cc2C)cc1 | 62.4 | > 100 |  |
| O=C(CSc1nnc(NC(=O)c2ccccc2Cl)s1)Nc1ccc2c(c1)oc1ccccc12 |  |  | > 40 |
| Cc1ccccc1C(=O)Nc1nnc(-c2ccc(F)cc2)o1 | 1.11 | 3.78 | 39.1 |
| Cc1cccc(OCC(O)Cn2c(=N)n(CCN3CCCCC3)c3ccccc32)c1 (stereo unspecified) | 5.87 | 6.69 | 35.8 |
| Cc1ccc(-c2ccc(/C=N/c3ncn[nH]3)o2)cc1Cl | 30.2 | > 100 |  |
| O=C(Nc1nnc(-c2ccc(F)cc2)o1)c1cccc([N+](=O)[O-])c1 | 5.68 | 14.8 | 12.4 |

| SMILES | IC50 [µM] | IC90 [µM] | CC50 [µM] |
| --- | --- | --- | --- |
| COc1ccc(C[C@H]2CN3C(=NC[C@@H]3Cc3ccccc3)N2CCNC(=O)CCC2CCCCC2)cc1 | 9.05 | 11.6 | 17.7 |
| Cc1ccc(N2CCN(C(=O)Nc3cccc([N+](=O)[O-])c3)CC2C)cc1 (stereo unspecified) | 27.1 | > 100 | > 40 |
| COc1ccccc1-c1nnc(NC(=O)C2=COCCO2)o1 | 8.99 | 15.5 | > 40 |
| CCn1nnc(NC(=O)c2ccc(-c3ccc(Cl)cc3)o2)n1 | 19.8 | > 100 |  |
| Cc1[nH]n2c(=O)c3c(nc2c1-c1ccccc1)CCCC3 | 2.89 | 4.05 | 22.8 |
| CCN1CCN(c2cc(-c3ccccc3)nc3cc(-c4cccc(F)c4)nn23)CC1 | 8.07 | 12.9 | 39.2 |
| Cc1ccc(NC(=O)CNCc2ccccc2)cc1Br | 32.3 | > 100 |  |
| O/C(=C\c1nc2ccccc2nc1/C=C(\O)c1ccccc1)c1ccccc1 |  | > 100 | > 40 |
| CCOC(=O)c1ccc(NC(=O)CCOc2ccc(C)cc2)cc1 | 20.9 | > 100 |  |
| C=C1C(=O)O[C@@H]2C[C@@H](C)[C@@H]3C=CC(=O)[C@@]3(C)[C@@H](OC(=O)CC(=O)O[C@H]3[C@@H]4C(=C)C(=O)O[C@@H]4C[C@@H](C)[C@@H]4C=CC(=O)[C@]43C)[C@H]12 | 1.47 | 3.35 | 1.4 |
| COc1cccc(C(=O)Nc2ccc3nc(N4CCN(c5ncccn5)CC4)cc(C)c3c2)c1OC | < 0.195 | 1.72 | 15.2 |
| COc1cc(/C=C2\COC/C(=C\c3ccc(O)c(OC)c3)C2=O)ccc1O | 5.7 | 10.8 | 21.8 |
| Cc1ccc(Cc2cnc(NC(=O)C3CCCO3)s2)cc1 (stereo unspecified) |  | > 100 | > 40 |
| CC(=O)N1CCN(c2cc3c(cc2F)c(=O)c(C(=O)O)cn3C2CC2)CC1 | 0.949 | 1.56 |  |
| Cc1cc(C)cc(OCc2nnc(SCC(=O)OC3CCCCC3)o2)c1 | 1.83 | 11.8 |  |
| Cc1ccc(C(=O)CC(SCC(=O)O)c2ccc([N+](=O)[O-])cc2)cc1 (stereo unspecified) | 7.91 | > 100 | 36.8 |
| O=c1[nH][nH]c(-c2ccccc2O)c1C(C[N+](=O)[O-])c1ccc(Br)cc1 (stereo unspecified) | 11.2 | 24.5 | 18.2 |
| O=C(CN1C(=O)C2C3CCC(C3)C2C1=O)Oc1ccc2ccccc2c1 (stereo unspecified) |  | > 100 |  |
| CCOc1ccc(N/C(C)=C\C(=O)c2ccc3c(c2)OCCO3)cc1 | 5.85 | > 100 |  |
| COc1cc(N=C2C(=O)N3c4c(cccc42)C(C)=CC3(C)C)cc(OC)c1 | 46.9 | > 100 |  |
| N#Cc1cnc2c(-c3ccccc3)c(-c3ccccc3)nn2c1N | 28.1 | > 100 | > 40 |
| CCOc1ccc(N=C(/C(C(=O)C(=O)N2CCOCC2)=C(\O)c2ccccc2)c2ccccc2)cc1 | 38.6 | > 100 |  |
| Oc1ccccc1-c1nc(/C=C/c2ccccc2)nn1-c1ccccc1 | 16.3 | > 100 |  |
| CCc1cc2cc(C(=O)Nc3ccc(C)cc3)sc2s1 | 1.34 | 1.81 |  |
| CC(=O)Nc1cccc(OCc2ccc(F)cc2)c1 |  | > 100 | > 40 |
| Nc1nc(Nc2cccc(Cl)c2)nc(NCc2ccco2)c1[N+](=O)[O-] | 29.9 | > 100 | > 40 |
